Like-named read-outs stand apart in the source and are kept apart here.
What was measured:
[1] = cited from earlier work
[2] = tested on: LPS853 liposarcoma cell line; assay: CellTiter-Glo viability, GR50, 72h; type: cell-based, human; details: Homo sapiens; LPS 853, 72h; read-out: Half maximum effective concentration corrected for cell growth (GR50)
Method: (§1) Cell viability was measured using the CellTiter-Glo Luminescent Cell Viability Assay (Promega, Wisconsin, United States). For each experiment the same cell numbers were seeded as for the proliferation experiments. Seven drug concentrations were used, starting from 100μM with 10-fold dilutions and also a vehicle control appropriate for each drug (DMSO or ethanol). After 72h of drug or vehicle control treatment levels of ATP were measured with CellTiter-Glo. The data from six to nine biological replicates, each with three technical replicates were collected. A nonlinear regression model with different four-parameter log-logistic function was used for modelling of the drug dose-response using ‘GRmetrics’ R package version 1.8.1 [26]. The calculated GR50 metric is equivalent to the IC50 metric but takes into account the growth rate of cells. Therefore, it estimates better the effect of the compound on cell viability and allows for comparison between different cell lines with different growth rates.

[3] = tested on: SW872 liposarcoma cell line; assay: CellTiter-Glo viability, GR50, 72h; type: cell-based, human; details: Homo sapiens, SW872; SW 872, 72h; read-out: Half maximum effective concentration corrected for cell growth (GR50)
Method: as §1

[4] = tested on: NRH-LS1 liposarcoma cell line; assay: CellTiter-Glo viability, GR50, 72h; type: cell-based, human; details: Homo sapiens; NRH-LS1, 72h; read-out: Half maximum effective concentration corrected for cell growth (GR50)
Method: as §1

[5] = tested on: T1000 liposarcoma cell line; assay: CellTiter-Glo viability, GR50, 72h; type: cell-based, human; details: Homo sapiens; T1000, 72h; read-out: Half maximum effective concentration corrected for cell growth (GR50)
Method: as §1

[6] = tested on: T449 liposarcoma cell line; assay: CellTiter-Glo viability, GR50, 72h; type: cell-based, human; details: Homo sapiens; T449, 72h; read-out: Half maximum effective concentration corrected for cell growth (GR50)
Method: as §1

[7] = tested on: T778 liposarcoma cell line; assay: CellTiter-Glo viability, GR50, 72h; type: cell-based, human; details: Homo sapiens; T778, 72h; read-out: Half maximum effective concentration corrected for cell growth (GR50)
Method: as §1

[8] = tested on: LS2 liposarcoma cell line; assay: CellTiter-Glo viability, GR50, 72h; type: cell-based, human; details: Homo sapiens; LS2, 72h; read-out: Half maximum effective concentration corrected for cell growth (GR50)
Method: as §1

[9] = tested on: LPS141 liposarcoma cell line; assay: CellTiter-Glo viability, GR50, 72h; type: cell-based, human; details: Homo sapiens, LPS141; LPS 141, 72h; read-out: Half maximum effective concentration corrected for cell growth (GR50)
Method: as §1

[10] = tested on: SA-4 liposarcoma cell line; assay: CellTiter-Glo viability, GR50, 72h; type: cell-based, human; details: Homo sapiens; SA-4, 72h; read-out: Half maximum effective concentration corrected for cell growth (GR50)
Method: as §1

[11] = tested on: GOT3 liposarcoma cell line; assay: CellTiter-Glo viability, GR50, 72h; type: cell-based, human; details: Homo sapiens; GOT3, 72h; read-out: Half maximum effective concentration corrected for cell growth (GR50)
Method: as §1

[12] = tested on: FU-DDLS-1 liposarcoma cell line; assay: CellTiter-Glo viability, GR50, 72h; type: cell-based, human; details: Homo sapiens; FU-DDL S-1, 72h; read-out: Half maximum effective concentration corrected for cell growth (GR50)
Method: as §1

[13] = tested on: LiSa-2 liposarcoma cell line; assay: CellTiter-Glo viability, GR50, 72h; type: cell-based, human; details: Homo sapiens; LiSa-2, 72h; read-out: Half maximum effective concentration corrected for cell growth (GR50)
Method: as §1

[14] = tested on: LPS510 liposarcoma cell line; assay: CellTiter-Glo viability, GR50, 72h; type: cell-based, human; details: Homo sapiens; LPS 510, 72h; read-out: Half maximum effective concentration corrected for cell growth (GR50)
Method: as §1

liposarcoma cell lines = assay: TUNEL apoptosis assay by flow cytometry; type: cell-based, human; details: growth arresting concentration, 17-72h, majority of cell lines
Method: Cells were treated with drugs at the concentrations corresponding to previously established growth arresting concentrations and collected between 17 and 72h. Time of collection was individual for every drug/cell line combination; cells were collected after the beginning of complete growth inhibition (based on the growth curves data) but only when first signs of morphological change or cell death were visible (estimated microscopically approximately every 2h). After methanol fixation, cells were barcoded with different combinations of Pacific Blue/Pacific Orange dyes (Thermo Fisher Scientific) for different drug treatments. After mixing, cells were incubated in the TUNEL reaction mix for 1h at 37°C, according to the manufacturer’s instructions (Roche, Germany), stained with Streptavidin-Cy5 conjugated Ab and digested with RNAse. Cells were counter-stained with propidium iodide and analyzed using LSR II Flow Cytometer (BD Biosciences, NJ, USA. The data were processed with FlowJo Version 7.6.5 (Tree Star, Ashland, USA). The gating strategy is presented in Fig 3A. Cy-5 positive cells (as compared to control sample) were calculated as apoptotic. Cell cycles of non-apoptotic cells were analyzed using the built in FlowJo Cell Cycle Analysis module. Three independent biological replicates were done for each cell line/drug combination with exception of FU-DDLS-1 and T1000 –for which we only had two replicates available.

IC50 [2] | IC50 [3] | IC50 [4] | IC50 [5] | IC50 [6] | IC50 [7] | IC50 [8] | IC50 [9] | IC50 [10] | IC50 [11] | IC50 [12] | IC50 [13] | IC50 [14] | Compound | mean steady state serum concentration (Css) ([1]; 24 patients with advanced solid malignancies) | apoptosis (increase in % of apoptotic cells) (liposarcoma cell lines) | Cmax ([1]; dosing schedule recommended for phase II, patients with solid tumors) | Cmax ([1]; read-out: maximum therapeutic plasma concentration (Cmax), in humans) | Css ([1]; phase I, maximum tolerated dose) | Cmax ([1]; read-out: clinically relevant concentration (Cmax or Css), values show Cmax or Css (italics), patients)
1 nM | 4 nM | 1 nM | 6 nM | 1 nM | 3 nM | 8 nM | 6 nM | 10 nM | 5 nM | 1 nM | 8 nM | 3 nM | O=C(/C=C/c1cccnc1)NCCCCC1CCN(C(=O)c2ccccc2)CC1 [APO866] | 14 nM | ≤ 5% |  |  |  | 
18 nM | 70 nM | 103 nM | 10 nM | 25 nM | 25 nM | 94 nM | 102 nM | 44 nM | 22 nM | 12 nM | 21 nM | 33 nM | Cn1cc(CNCC2CCN(c3ncc(C(=O)NO)cn3)CC2)c2ccccc21 [JNJ-26481585] |  | above 5% | 1.5 to 14 nM |  |  | 
4 nM | 2 nM | 69 nM | 17 nM | 712 nM | 96 nM | 358 nM | 11 nM | 30 nM | 187 nM | 49 nM | 234 nM | 93 nM | COCCn1c2c([n+](Cc3cnccn3)c1C)C(=O)c1ccccc1C2=O [YM155] |  | above 5% |  |  | 17 nM | 17 nM

Compound | IC50 [2] | IC50 [3] | IC50 [4] | IC50 [5] | IC50 [6] | IC50 [7] | IC50 [8] | IC50 [9] | IC50 [10] | IC50 [11] | IC50 [12] | IC50 [13] | IC50 [14] | mean steady state serum concentration (Css) ([1]; 24 patients with advanced solid malignancies) | apoptosis (increase in % of apoptotic cells) (liposarcoma cell lines) | Cmax ([1]; dosing schedule recommended for phase II, patients with solid tumors) | Cmax ([1]; read-out: maximum therapeutic plasma concentration (Cmax), in humans) | Css ([1]; phase I, maximum tolerated dose) | Cmax ([1]; read-out: clinically relevant concentration (Cmax or Css), values show Cmax or Css (italics), patients)
CC(C)[C@]12O[C@H]1[C@@H]1O[C@]13[C@]1(O[C@H]1C[C@H]1C4=C(CC[C@@]13C)C(=O)OC4)[C@@H]2O [Triptolide] | 5 nM | 2 nM | 7 nM | 8 nM | 8 nM | 8 nM | 6 nM | 12 nM | 13 nM | 7 nM | 8 nM | 9 nM | 5 nM |  | above 15% |  | 150 to 400 nM |  | 

— publication PMC7946228, “Discovery of novel candidates for anti-liposarcoma therapies by medium-scale high-throughput drug screening” (PLoS ONE, 2021)
